Values quoted from earlier work in article PMC9569971, “New Oxazolo[5,4-d]pyrimidines as Potential Anticancer Agents: Their Design, Synthesis, and In Vitro Biological Activity Research” (International Journal of Molecular Sciences, 2022).
Read-outs that look alike come from different tables or passages of the source.

Experiments:
Conditions in all cases: cited from earlier work
HT29 = test system: HT29
MCF7 = test system: MCF7
A549 = test system: A549
LoVo = test system: LoVo
HT29 cells = test system: HT29 cells; design: method as in PMID 27002410

SMILES: Cc1ccc(Nc2nccc(N(C)c3ccc4c(C)n(C)nc4c3)n2)cc1S(N)(=O)=O [Pazopanib]
- IC50 (HT29; ref 77): > 5 µM
- IC50 (MCF7): 6.29 µM
- IC50 (A549; ref 75, read-out: IC50 (converted)): 4 to 6 µM

SMILES: CNC(=O)c1cc(Oc2ccc(NC(=O)Nc3ccc(Cl)c(C(F)(F)F)c3)c(F)c2)ccn1 [Regorafenib]
- IC50 (HT29; ref 66): 2.75 ± 0.18 µM
- IC50 (LoVo): 2 µM

SMILES: CNC(=O)c1cc(Oc2ccc(NC(=O)Nc3ccc(Cl)c(C(F)(F)F)c3)cc2)ccn1 [Sorafenib]
- IC50 (HT29; ref 80): 17.3 ± 3.8 µM
- IC50 (LoVo): 31 µM
- IC50 (A549; ref 80, read-out: IC50 (converted)): 5.62 ± 2.13 µM

SMILES: CCN(CC)CCNC(=O)c1c(C)[nH]c(/C=C2\C(=O)Nc3ccc(F)cc32)c1C [Sunitinib]
- IC50 (HT29; ref 78): 4.89 µM
- IC50 (HT29; ref 79): 2.25 µM
- IC50 (LoVo): 4.18 ± 0.27 µM
- IC50 (MCF7): 7.3 µM
- IC50 (A549; ref 78, read-out: IC50 (converted)): 6.98 µM

SMILES: COc1cc2nccc(Oc3ccc(NC(=O)Nc4cc(C)on4)c(Cl)c3)c2cc1OC [Tivozanib]
- IC50 (MCF7): 0.25 ± 0.03 µM
- IC50 (A549; ref 64, read-out: IC50 (converted)): 0.19 ± 0.04 µM

SMILES: COc1cc2c(Nc3ccc(Br)cc3F)ncnc2cc1OCC1CCN(C)CC1 [Vandetanib]
- IC50 (HT29; ref 74): 10 ± 0.4 µM
- IC50 (LoVo): 3.5 ± 0.9 µM
- IC50 (MCF7): 12.2 ± 0.28 µM
- IC50 (A549; ref 72, read-out: IC50 (converted)): 2.7 ± 0.5 µM

SMILES: COc1ccc(CCN(C)CCCC(C#N)(c2ccc(OC)c(OC)c2)C(C)C)cc1OC (stereo not drawn) [verapamil]
- intracellular fluorescence intensity of Rh-123, increase (HT29 cells; HT29, treatment 48 h): 1.77 fold
- intracellular fluorescence intensity of Rh-123, increase (HT29 cells; HT29, treatment 72 h): 1.9 fold
